Test results from the supplement of paper PMC10331698.
± gives the standard deviation of the averaged measurements.

Legend:
Assay in all cases: level (log10 ratio to DMSO vehicle control); higher = higher biomarker level / cell amount than vehicle control
Settings in all cases: in DMSO
Methotrexate = compound: CN(Cc1cnc2nc(N)nc(N)c2n1)c1ccc(C(=O)N[C@@H](CCC(=O)O)C(=O)O)cc1 [Methotrexate]
Protocol: (§1)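 BioMAP Diversity Plus panel of 12 human primary cell co-culture systems (3C, 4H, LPS, SAg, BT, BF4T, BE3C, CASM3C, HDF3CGF, KF3CT, MyoF, Mphg). Compounds were added 1 h before stimulation and left for 24 h (MyoF 48 h; BT 72 h for soluble read-outs or 6 d for IgG). Biomarkers were read by ELISA, cytotoxicity by SRB, PBMC viability and proliferation by Alamar Blue. Each well value was divided by the mean of 8 DMSO control wells on the same plate and log10 transformed; duplicate blinded samples were tested at 4 concentrations.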

[1] = compound: FC(F)(F)C(F)(F)C(F)(F)C(F)(F)CCI [1H,1H,2H,2H-Perfluorohexyl iodide]
Protocol: as §1

[2] = compound: O=C(CC(=O)C(F)(F)C(F)(F)C(F)(F)F)c1cccs1 [(Perfluorobutyryl)-2-thenoylmethane]
Protocol: as §1

[3] = compound: O=C(Cl)C(F)(F)C(F)(F)C(F)(F)C(=O)Cl [Hexafluoroglutaryl chloride]
Protocol: as §1

Perfluorooctanoic acid = compound: O=C(O)C(F)(F)C(F)(F)C(F)(F)C(F)(F)C(F)(F)C(F)(F)C(F)(F)F [Perfluorooctanoic acid]
Protocol: as §1

Perfluoropinacol = compound: OC(C(F)(F)F)(C(F)(F)F)C(O)(C(F)(F)F)C(F)(F)F [Perfluoropinacol]
Protocol: as §1

[4] = compound: OCC(F)(F)C(F)(F)C(F)(F)C(F)(F)C(F)(F)C(F)(F)C(F)(F)C(F)(F)CO [1H,1H,10H,10H-Perfluorodecane-1,10-diol]
Protocol: as §1

Row | Test System | level (log10) (Methotrexate; 1500 nM) | level (log10) (Methotrexate; 4400 nM) | level (log10) (Methotrexate; 13000 nM) | level (log10) (Methotrexate; 40000 nM) | level (log10) ([1]; 6700 nM) | level (log10) ([1]; 20000 nM) | level (log10) ([1]; 60000 nM) | level (log10) ([2]; 6700 nM) | level (log10) ([2]; 20000 nM) | level (log10) ([3]; 6700 nM) | level (log10) ([3]; 20000 nM) | level (log10) ([3]; 60000 nM) | level (log10) (Perfluorooctanoic acid; 6700 nM) | level (log10) (Perfluorooctanoic acid; 20000 nM) | level (log10) (Perfluorooctanoic acid; 60000 nM) | level (log10) (Perfluoropinacol; 6700 nM) | level (log10) (Perfluoropinacol; 20000 nM) | level (log10) ([4]; 6700 nM) | level (log10) ([4]; 20000 nM) | level (log10) ([4]; 60000 nM)
1 | lMphg:CCL2/MCP-1 | 0.0115 ± 0.03 | 0.008 ± 0.035 | -0.0105 ± 0.033 | -0.0055 ± 0.021 | -0.028 ± 0.042 | -0.0285 ± 0.0021 | 0.008 ± 0.013 | -0.047 ± 0.031 | -0.27 ± 0.056 | -0.005 ± 0.0099 | -0.0025 ± 0.019 | 0.0125 ± 0.015 | 0.018 ± 0.0071 | 0.036 ± 0.0028 | 0.025 ± 0.025 | 0.0265 ± 0.028 | -0.148 ± 0.0014 | -0.0125 ± 0.016 | -0.0145 ± 0.005 | -0.653
2 | lMphg:CCL3/MIP-1alpha | -0.0375 ± 0.016 | -0.0305 ± 0.00071 | 0.0035 ± 0.012 | 0.029 ± 0.027 | -0.0185 ± 0.00071 | -0.0515 ± 0.023 | -0.013 ± 0.014 | 0.0225 ± 0.029 | 0.012 ± 0.057 | 0.001 ± 0.069 | 0.012 ± 0.034 | 0.0145 ± 0.073 | 0.039 ± 0.033 | 0.0295 ± 0.066 | -0.0365 ± 0.067 | 0.116 ± 0.047 | 0.116 ± 0.062 | -0.0375 ± 0.005 | -0.02 ± 0.016 | -0.473
3 | lMphg:CD40 | 0.0125 ± 0.005 | 0.0005 ± 0.013 | -0.0155 ± 0.023 | 0.0045 ± 0.0021 | -0.017 ± 0.014 | -0.0245 ± 0.029 | -0.018 ± 0.025 | -0.0105 ± 0.016 | -0.119 ± 0.0071 | 0.036 ± 0.037 | 0.0115 ± 0.022 | -0.002 ± 0.011 | -0.0035 ± 0.021 | -0.021 ± 0.0057 | -0.018 ± 0.014 | -0.0265 ± 0.019 | -0.202 ± 0.03 | -0.0285 ± 0.0064 | -0.0695 ± 0.032 | -0.536
4 | lMphg:CD62E/E-Selectin | -0.009 ± 0.0099 | -0.0265 ± 0.028 | -0.0135 ± 0.019 | -0.011 ± 0.033 | -0.021 ± 0.0071 | -0.0105 ± 0.026 | 0.0315 ± 0.0064 | -0.0485 ± 0.054 | -0.123 ± 0.034 | -0.0295 ± 0.016 | 0.0025 ± 0.018 | -0.0365 ± 0.022 | -0.007 ± 0.025 | 0.013 | 0.052 ± 0.017 | 0.0515 ± 0.013 | -0.139 ± 0.018 | -0.0175 ± 0.005 | -0.102 ± 0.11 | -0.8
5 | lMphg:CD69 | -0.03 ± 0.021 | -0.0135 ± 0.036 | -0.0325 ± 0.057 | -0.034 ± 0.054 | -0.019 | -0.013 ± 0.013 | 0.043 ± 0.021 | -0.169 ± 0.049 | -0.23 ± 0.013 | -0.021 ± 0.011 | -0.032 ± 0.018 | -0.0135 ± 0.029 | -0.048 ± 0.028 | -0.0655 ± 0.05 | -0.033 ± 0.11 | -0.124 ± 0.026 | -0.256 ± 0.058 | -0.003 ± 0.0099 | -0.019 ± 0.033 | -0.348
6 | lMphg:CD106/VCAM-1 | -0.001 ± 0.025 | -0.016 ± 0.021 | -0.002 ± 0.0057 | -0.007 ± 0.021 | 0.0015 ± 0.018 | -0.0005 ± 0.016 | 0.009 ± 0.013 | -0.006 ± 0.0057 | -0.0715 ± 0.036 | -0.0075 ± 0.0078 | -0.0015 ± 0.037 | -0.0145 ± 0.042 | 0.0065 ± 0.0078 | 0.0065 ± 0.011 | 0.0025 ± 0.0092 | 0.0045 ± 0.0064 | -0.077 ± 0.023 | -0.008 ± 0.0014 | -0.0075 ± 0.029 | -0.802
7 | lMphg:CXCL8/IL-8 | 0.0075 ± 0.046 | -0.017 | 0.003 ± 0.023 | 0.044 ± 0.0057 | -0.0325 ± 0.0035 | -0.006 ± 0.0085 | 0.0355 ± 0.018 | -0.022 ± 0.027 | 0.048 ± 0.011 | 0.023 ± 0.011 | 0.027 ± 0.018 | 0.0625 ± 0.05 | 0.009 ± 0.021 | 0.073 ± 0.048 | 0.175 ± 0.054 | 0.0875 ± 0.061 | 0.161 ± 0.066 | 0.03 ± 0.035 | 0.0055 ± 0.018 | -0.19
8 | lMphg:IL-1alpha | -0.0335 ± 0.097 | -0.0545 ± 0.083 | -0.041 ± 0.057 | -0.028 ± 0.047 | 0.008 | 0.0045 ± 0.012 | 0.0345 ± 0.0078 | 0.0035 ± 0.0035 | 0.0395 ± 0.04 | -0.0255 ± 0.052 | -0.041 ± 0.086 | -0.03 ± 0.082 | -0.0105 ± 0.0021 | -0.0085 ± 0.026 | 0.0545 ± 0.026 | 0.103 ± 0.021 | 0.149 ± 0.067 | 0.002 ± 0.028 | 0.0055 ± 0.046 | -0.167
9 | lMphg:M-CSF | -0.03 ± 0.034 | -0.013 ± 0.025 | -0.0295 ± 0.026 | -0.013 ± 0.085 | -0.018 ± 0.017 | -0.0275 ± 0.018 | 0.0185 ± 0.0035 | -0.0285 ± 0.0021 | -0.072 ± 0.0085 | 0.011 | -0.021 ± 0.031 | 0.018 ± 0.011 | -0.007 ± 0.0042 | 0.0105 ± 0.019 | 0.0185 ± 0.029 | -0.0155 ± 0.04 | -0.0825 ± 0.013 | -0.0155 ± 0.005 | -0.031 | -0.097
10 | lMphg:SRB | 0.0015 ± 0.0064 | -0.0005 ± 0.00071 | -0.002 ± 0.0085 | 0.0055 ± 0.00071 | -0.008 ± 0.011 | -0.003 ± 0.0028 | 0 ± 0.021 | -0.0175 ± 0.0064 | -0.106 ± 0.029 | 0.008 ± 0.0057 | 0.012 | 0.0075 ± 0.0092 | -0.008 ± 0.0071 | -0.0005 ± 0.005 | 0.011 ± 0.017 | -0.0315 ± 0.0035 | -0.144 ± 0.0064 | -0.0025 ± 0.013 | -0.014 ± 0.0057 | -1.09
11 | lMphg:SRB-Mphg | -0.105 ± 0.073 | -0.0855 ± 0.0021 | -0.105 ± 0.064 | 0.0295 ± 0.025 | -0.0005 ± 0.03 | -0.004 ± 0.031 | 0.0005 ± 0.025 | 0.005 ± 0.011 | -0.054 ± 0.0028 | 0.007 ± 0.0057 | 0.0065 ± 0.005 | 0.0125 ± 0.011 | -0.0085 ± 0.013 | 0.0005 ± 0.005 | -0.002 ± 0.03 | -0.015 ± 0.0099 | -0.05 ± 0.0028 | 0.003 ± 0.028 | -0.0625 ± 0.084 | -0.775
12 | lMphg:sIL-10 | 0.076 ± 0.03 | 0.05 ± 0.011 | 0.0485 ± 0.023 | 0.014 ± 0.028 | -0.072 ± 0.047 | -0.043 ± 0.03 | -0.0495 ± 0.042 | 0.0065 ± 0.071 | -0.429 ± 0.093 | -0.049 ± 0.045 | -0.102 ± 0.0035 | 0.0335 ± 0.076 | -0.0525 ± 0.032 | -0.0035 ± 0.11 | -0.219 ± 0.051 | 0.031 ± 0.017 | -0.498 ± 0.24 | -0.0265 ± 0.06 | -0.357 ± 0.27 | -1.1
